# Measured values from patent US20160008277A1, “CO-PACKAGED DRUG PRODUCTS” (Lightlake Therapeutics Inc., priority 2014, published 2016).
# Read-outs that look alike come from different tables or passages of the source.
# Tests used:
# clinical = settings: human, plasma; for AUC(0-t): AUC0-t; for AUC(0-inf): AUC0-∞
# [1] = system: patients with suspected opioid overdose; settings: cited from earlier work
# [2] = im, 0.4 mg, GLSM, 0.4 mg IM, no dose adjustment
# [3] = other: intranasal, 2 mg, GLSM, 2 mg IN, no dose adjustment
# [4] = other: intranasal, 2 mg, Mean, 2 mg IN
# [5] = other: intranasal, 4 mg, GLSM, 4 mg IN, no dose adjustment
# [6] = other: intranasal, 4 mg, Mean, 4 mg IN
smiles,measurement,setting,value
"C=CCN1CC[C@]23c4c5ccc(O)c4O[C@H]2C(=O)CC[C@@]3(O)[C@H]1C5 [naloxone, 17-allyl-4,5a-epoxy-3,14-dihydroxymorphinan-6-one]",AUC(0-t),clinical; [2],1.35 ng·h/mL
same,AUC(0-t),"clinical; im, 0.4 mg, Mean, 0.4 mg IM",1.38 ng·h/mL
same,AUC(0-inf),clinical; [2],1.39 ng·h/mL
same,AUC(0-inf),"clinical; im, 0.4 mg, Mean, 0.4 mg IM",1.42 ng·h/mL
same,Tmax,"clinical; im, 0.4 mg, GLSM, 0.4 mg IM",18.5 min
same,Tmax,"clinical; im, 0.4 mg, Mean, 0.4 mg IM",20.3 min
same,AUC(0-t),clinical; [3],3.28 ng·h/mL
same,AUC(0-t),clinical; [4],3.41 ng·h/mL
same,AUC(0-inf),clinical; [3],3.32 ng·h/mL
same,AUC(0-inf),clinical; [4],3.44 ng·h/mL
same,Tmax,"clinical; other: intranasal, 2 mg, GLSM, 2 mg IN",20 min
same,Tmax,clinical; [4],20 min
same,AUC(0-t),clinical; [5],5.41 ng·h/mL
same,AUC(0-t),clinical; [6],5.63 ng·h/mL
same,AUC(0-inf),clinical; [5],5.47 ng·h/mL
same,AUC(0-inf),clinical; [6],5.68 ng·h/mL
same,Tmax,"clinical; other: intranasal, 4 mg, GLSM, 4 mg IN",17.5 min
same,Tmax,clinical; [6],18.4 min
same,mean interval from EMS arrival to a respiratory rate of ≧10 breaths/min,[1]; naloxone 0.4 mg IV,9.3 ± 4.2 min
same,mean interval from EMS arrival to a respiratory rate of ≧10 breaths/min,[1]; naloxone 0.8 mg SQ,9.6 ± 4.58 min
